Reference: PubChem BioAssay (NCI)
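Where inhibition never reached the appropriate level, the endpoint shown equals the highest concentration tested. Otherwise, values were interpolated linearly from a five-concentration, 48-hour dose response in 96-well plates. GI50 is the concentration that inhibits growth by half. Definition used: TGI = concentration required for complete inhibition of growth.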

Columns and labels:
Assay in all cases: NCI-60 cell line screen, 48 h
HCT-15 colon = system: HCT-15 colon
SK-MEL-5 melanoma = system: SK-MEL-5 melanoma
HCT-116 colon = system: HCT-116 colon
NCI-H23 lung = system: NCI-H23 lung
LOX IMVI melanoma = system: LOX IMVI melanoma
A549 NSCLC = system: A549 NSCLC
K-562 leukemia = system: K-562 leukemia
M14 melanoma = system: M14 melanoma
CAKI-1 renal = system: CAKI-1 renal
TK-10 renal = system: TK-10 renal
SF-295 CNS = system: SF-295 CNS
EKVX NSCLC = system: EKVX NSCLC
NCI-H460 lung = system: NCI-H460 lung
HL-60(TB) leukemia = system: HL-60(TB) leukemia
SN12C renal = system: SN12C renal
SK-OV-3 ovarian = system: SK-OV-3 ovarian
PC-3 prostate = system: PC-3 prostate
MDA-MB-435 = system: MDA-MB-435
CCRF-CEM leukemia = system: CCRF-CEM leukemia
U251 CNS = system: U251 CNS
NCI-H522 lung = system: NCI-H522 lung
SF-539 CNS = system: SF-539 CNS
OVCAR-8 ovarian = system: OVCAR-8 ovarian
NCI-H226 lung = system: NCI-H226 lung
DU-145 prostate = system: DU-145 prostate
IGROV1 ovarian = system: IGROV1 ovarian
MCF7 breast = system: MCF7 breast
SF-268 CNS = system: SF-268 CNS
OVCAR-4 ovarian = system: OVCAR-4 ovarian
OVCAR-3 ovarian = system: OVCAR-3 ovarian
ACHN renal = system: ACHN renal
NCI/ADR-RES ovarian = system: NCI/ADR-RES ovarian
SR leukemia = system: SR leukemia
MDA-MB-231 breast = system: MDA-MB-231 breast
786-0 renal = system: 786-0 renal
HT29 colon = system: HT29 colon
MALME-3M melanoma = system: MALME-3M melanoma
SK-MEL-28 melanoma = system: SK-MEL-28 melanoma
SNB-75 CNS = system: SNB-75 CNS
BT-549 breast = system: BT-549 breast
HOP-62 NSCLC = system: HOP-62 NSCLC
COLO 205 colon = system: COLO 205 colon
KM12 colon = system: KM12 colon
MOLT-4 leukemia = system: MOLT-4 leukemia
OVCAR-5 ovarian = system: OVCAR-5 ovarian
SK-MEL-2 melanoma = system: SK-MEL-2 melanoma
RXF 393 renal = system: RXF 393 renal
HS 578T breast = system: HS 578T breast
HCC-2998 colon = system: HCC-2998 colon
SNB-19 CNS = system: SNB-19 CNS
UO-31 renal = system: UO-31 renal
UACC-62 melanoma = system: UACC-62 melanoma
UACC-257 melanoma = system: UACC-257 melanoma
SW-620 colon = system: SW-620 colon
T-47D breast = system: T-47D breast
HOP-92 NSCLC = system: HOP-92 NSCLC
A498 renal = system: A498 renal
RPMI-8226 leukemia = system: RPMI-8226 leukemia

CCCCCCCC(=O)SCC/C=C/[C@@H]1CC(=O)NCc2cccc(n2)CN(Cc2ccc3ccccc3c2)CC(=O)N[C@@H](C(C)C)C(=O)O1
GI50 (HCT-15 colon): 89.3 µM | TGI (HCT-15 colon): > 100 µM | GI50 (SK-MEL-5 melanoma): 36.2 µM | TGI (SK-MEL-5 melanoma): > 100 µM | GI50 (HCT-116 colon): 26.5 µM | TGI (HCT-116 colon): > 100 µM | GI50 (NCI-H23 lung): > 100 µM | TGI (NCI-H23 lung): > 100 µM | GI50 (LOX IMVI melanoma): 35.1 µM | TGI (LOX IMVI melanoma): > 100 µM | GI50 (A549 NSCLC): > 100 µM | TGI (A549 NSCLC): > 100 µM | GI50 (K-562 leukemia): 59.4 µM | TGI (K-562 leukemia): > 100 µM | GI50 (M14 melanoma): 44.3 µM | TGI (M14 melanoma): > 100 µM | GI50 (CAKI-1 renal): > 100 µM | TGI (CAKI-1 renal): > 100 µM | GI50 (TK-10 renal): 18.2 µM | TGI (TK-10 renal): > 100 µM | GI50 (SF-295 CNS): 41.4 µM | TGI (SF-295 CNS): > 100 µM | GI50 (EKVX NSCLC): > 100 µM | TGI (EKVX NSCLC): > 100 µM | GI50 (NCI-H460 lung): 43.9 µM | TGI (NCI-H460 lung): > 100 µM | GI50 (HL-60(TB) leukemia): 48 µM | TGI (HL-60(TB) leukemia): > 100 µM | GI50 (SN12C renal): > 100 µM | TGI (SN12C renal): > 100 µM | GI50 (SK-OV-3 ovarian): 40 µM | TGI (SK-OV-3 ovarian): > 100 µM | GI50 (PC-3 prostate): 62.4 µM | TGI (PC-3 prostate): > 100 µM | GI50 (MDA-MB-435): 39.7 µM | TGI (MDA-MB-435): > 100 µM | GI50 (CCRF-CEM leukemia): 37.9 µM | TGI (CCRF-CEM leukemia): > 100 µM | GI50 (U251 CNS): 98.2 µM | TGI (U251 CNS): > 100 µM | GI50 (NCI-H522 lung): 84.3 µM | TGI (NCI-H522 lung): > 100 µM | GI50 (SF-539 CNS): > 100 µM | TGI (SF-539 CNS): > 100 µM | GI50 (OVCAR-8 ovarian): 87 µM | TGI (OVCAR-8 ovarian): > 100 µM | GI50 (NCI-H226 lung): > 100 µM | TGI (NCI-H226 lung): > 100 µM | GI50 (DU-145 prostate): 94.1 µM | TGI (DU-145 prostate): > 100 µM | GI50 (IGROV1 ovarian): 44.4 µM | TGI (IGROV1 ovarian): > 100 µM | GI50 (MCF7 breast): 40 µM | TGI (MCF7 breast): > 100 µM | GI50 (SF-268 CNS): 93.8 µM | TGI (SF-268 CNS): > 100 µM | GI50 (OVCAR-4 ovarian): > 100 µM | TGI (OVCAR-4 ovarian): > 100 µM | GI50 (OVCAR-3 ovarian): 74.3 µM | TGI (OVCAR-3 ovarian): > 100 µM | GI50 (ACHN renal): 45.3 µM | TGI (ACHN renal): > 100 µM | GI50 (NCI/ADR-RES ovarian): 46.4 µM | TGI (NCI/ADR-RES ovarian): > 100 µM | GI50 (SR leukemia): 22.9 µM | TGI (SR leukemia): > 100 µM | GI50 (MDA-MB-231 breast): 41.4 µM | TGI (MDA-MB-231 breast): > 100 µM | GI50 (786-0 renal): > 100 µM | TGI (786-0 renal): > 100 µM | GI50 (HT29 colon): 32.2 µM | TGI (HT29 colon): > 100 µM | GI50 (MALME-3M melanoma): 23.8 µM | TGI (MALME-3M melanoma): > 100 µM | GI50 (SK-MEL-28 melanoma): 47 µM | TGI (SK-MEL-28 melanoma): > 100 µM | GI50 (SNB-75 CNS): 27.9 µM | TGI (SNB-75 CNS): > 100 µM | GI50 (BT-549 breast): > 100 µM | TGI (BT-549 breast): > 100 µM | GI50 (HOP-62 NSCLC): 39.2 µM | TGI (HOP-62 NSCLC): > 100 µM | GI50 (COLO 205 colon): 61.6 µM | TGI (COLO 205 colon): > 100 µM | GI50 (KM12 colon): 42.3 µM | TGI (KM12 colon): > 100 µM | GI50 (MOLT-4 leukemia): 30.9 µM | TGI (MOLT-4 leukemia): > 100 µM | GI50 (OVCAR-5 ovarian): > 100 µM | TGI (OVCAR-5 ovarian): > 100 µM | GI50 (SK-MEL-2 melanoma): 92.4 µM | TGI (SK-MEL-2 melanoma): > 100 µM | GI50 (RXF 393 renal): 42.2 µM | TGI (RXF 393 renal): > 100 µM | GI50 (HS 578T breast): 46 µM | TGI (HS 578T breast): > 100 µM | GI50 (HCC-2998 colon): > 100 µM | TGI (HCC-2998 colon): > 100 µM | GI50 (SNB-19 CNS): > 100 µM | TGI (SNB-19 CNS): > 100 µM | GI50 (UO-31 renal): 50 µM | TGI (UO-31 renal): > 100 µM | GI50 (UACC-62 melanoma): 51.6 µM | TGI (UACC-62 melanoma): > 100 µM | GI50 (UACC-257 melanoma): 88.9 µM | TGI (UACC-257 melanoma): > 100 µM | GI50 (SW-620 colon): > 100 µM | TGI (SW-620 colon): > 100 µM | GI50 (T-47D breast): > 100 µM | TGI (T-47D breast): > 100 µM | GI50 (HOP-92 NSCLC): 56.2 µM | TGI (HOP-92 NSCLC): > 100 µM | GI50 (A498 renal): 29.5 µM | TGI (A498 renal): 88.3 µM | GI50 (RPMI-8226 leukemia): > 100 µM | TGI (RPMI-8226 leukemia): > 100 µM
